{"source": "paper PMC12384447", "about": "“Effect of a Novel Antidepressant and Anticancer Nuc01 on Depression in Cancer Survivors” (Current Issues in Molecular Biology, 2025)", "biological_target": "T1, LSD1 (lysine-specific demethylase 1) (Homo sapiens, UniProt O60341)", "T1 construct": "gene KDM1A; residues 172–852", "experiment": "TR-FRET (LANCE) demethylase assay with biotinylated histone H3K4me1 peptide", "format": "biochemical"}
{"smiles": "CN(C)CC(c1ccc(OC(=O)N(C)CCN(C)C2CC2c2ccccc2)cc1)C1(O)CCCCC1", "note": "(stereo not shown) [Nuc01]", "values": [{"measurement": "IC50", "value": 530, "unit": "nM"}]}
